The subject of one data set is MDR1 (P-gp). Nature of the data set: Efflux ratio of apparent permeability across basolateral to apical side over apical to basolateral side in MDCK-MDR1 cells at 1 uM incubated for 120 mins by LC-MS/MS analysis. Particulars: dog. The data set is classed as ADME, cell-based, Canis lupus familiaris.
The target in data set [1] is T1, Interleukin-1 receptor-associated kinase 4 (Homo sapiens, UniProt Q9NWZ3).
T1 sequence (Q9NWZ3 whole entry): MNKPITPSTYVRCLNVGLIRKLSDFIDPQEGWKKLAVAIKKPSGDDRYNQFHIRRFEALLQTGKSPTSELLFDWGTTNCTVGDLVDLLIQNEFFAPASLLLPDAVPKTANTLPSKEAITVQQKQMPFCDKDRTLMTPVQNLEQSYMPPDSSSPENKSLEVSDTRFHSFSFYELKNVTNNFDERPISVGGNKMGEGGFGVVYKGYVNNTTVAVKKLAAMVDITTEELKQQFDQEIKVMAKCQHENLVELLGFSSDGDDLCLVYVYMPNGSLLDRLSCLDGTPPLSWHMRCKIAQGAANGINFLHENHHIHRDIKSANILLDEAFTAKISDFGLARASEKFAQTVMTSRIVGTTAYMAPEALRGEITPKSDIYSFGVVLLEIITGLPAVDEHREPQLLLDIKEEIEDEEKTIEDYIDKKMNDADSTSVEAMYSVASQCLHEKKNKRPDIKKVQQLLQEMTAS

A short description of data set [2]: Drug metabolism in male Sprague-Dawley rat liver microsomes assessed as oxidative metabolism at methyl-THF moiety at 10 uM incubated for 60 mins by LC-MS/MS analysis. The data set is classed as ADME, Microsome. The following applies: 1 h. Background: Microsomes from liver hold many membrane-bound enzymes, among them those of drug oxidation.
A short description of data set [3]: Metabolic stability in rat liver microsomes assessed as intrinsic clearance. It is filed as ADME, Microsome. Particulars: read-out: CLH.
Data set [4] in a line: Metabolic stability in human liver microsomes assessed as intrinsic clearance. The data set is classed as ADME, Microsome. Particulars: read-out: CLH.
The nature of data set [5]: Drug metabolism in human liver microsomes assessed as oxidative metabolism at methyl-THF moiety at 10 uM incubated for 60 mins by LC-MS/MS analysis. It is filed as ADME, Microsome. The following applies: 1 h.
Data set [6] can be described thus: Unbound brain-to-plasma concentration ratio in iv dosed rat measured at 4 to 24 hrs by LC-MS/MS analysis. The following applies: brain and plasma, time 4-24 hrs, read-out: K(p,uu,brain). It is filed as ADME, organism-based.

pIC50: −log10 of the molar value.

One may read the efflux ratio as the permeability from basolateral to apical divided by that in the opposite direction, in the common usage. The pIC50 is −log10 of the IC50, conventionally taken in molar units. A high value points to a low IC50. For `CCOc1cc2nc(C[C@@H]3CCOC3)cn2cc1NC(=O)c1cccc(C(F)F)n1`, the efflux ratio at 2 h, 1 µM in the data set with MDR1 (P-gp) stood at 1.5. For the same compound, the pIC50 in data set [1] is 9.05. Besides, the Drug metabolism entry in data set [2] and in data set [5] was “Metabolite_Detected” each time. Besides, the CLint scaled in data set [3] worked out at 171 mL/min/kg; in data set [4], 62 mL/min/kg. Further, in data set [6], the Kp uu is 0.9.

These data come from ChEMBL document CHEMBL5518220, “The Discovery of 7-Isopropoxy-2-(1-methyl-2-oxabicyclo[2.1.1]hexan-4-yl)-N-(6-methylpyrazolo[1,5-a]pyrimidin-3-yl)imidazo[1,2-a]pyrimidine-6-carboxamide (BIO-7488), a Potent, Selective, and CNS-Penetrant IRAK4 Inhibitor for the Treatment of Ischemic Stroke” (J Med Chem, 2024).
